What was measured:
[1] = system: PBMCs from TG allergic donors; experiment: IL-5 ELISPOT of TG extract-expanded PBMCs from TG allergic donors (peptide pools, single peptides, TG extract); format: cell-based, human
Description: Each donor was recruited following Institutional Review Board approval (Federal Wide Assurance number 00000032) and informed consent and assigned a study identification number. Donors were tested for allergen reactivity by skin prick tests to extracts from 32 common allergens. TG allergic donors were identified as having a skin reaction with a wheal of 5 mm in diameter to TG and a clinical history consistent with seasonal grass pollen allergy. Donors that had received specific immunotherapy were excluded. Non-allergic donors were identified as having negative skin prick tests to all allergens and no clinical history of allergy.
PBMCs were isolated by density gradient centrifugation from one unit of blood (˜450 ml) and cryo-preserved as described previously (12). For in vitro expansions, PBMCs were thawed and cultured in RPMI 1640 (Ω Scientific, Tarzana, Calif.) supplemented with 5% human AB serum (Cellgro, Herndon, Va.) at a density of 2×10^6 cells/ml in 24-well plates (BD Biosciences, San Jose, Calif.) and stimulated with TG pollen extract ([…]) (Greer, Lenoir, N.C.). Cells were kept at 37° C., 5% CO2 and additional IL-2 and IL-7 (10 U/ml, eBioscience, San Diego, Calif.) was added every 3 d after initial antigenic stimulation. On day 14, cells were harvested and screened for reactivity against TG-specific peptide pools (16-25 peptides/pool, averaging 20 peptides/pool). On day 17, peptides from positive pools were tested individually to identify the reactive epitopes.
The production of IL-5 from cultured PBMCs in response to antigen stimulation was measured by ELISPOT as described previously (12). Briefly, 1×10^5 cells/well were incubated with peptide, peptide pool or TG extract (10 μg/ml, 5 μg/ml and 50 μg/ml, respectively). After 24 h, cells were removed and plates were incubated with 2 μg/ml biotinylated anti-human IL-5 Ab (Mabtech) at 37° C. After 2 h, plates were washed and avidin-peroxidase-complex was added (Vector Laboratories, Burlingame, Calif.) for 1 h at RT. Peroxidase-conjugated spots were developed with 3-amino-9-ethylcarvazole solution (Sigma-Aldrich, St. Louis, Mo.). Criteria for peptide pool positivity were 100 SFCs/106 PBMCs, p 0.05, and a stimulation index (SI) 2. Criteria for individual peptides were the same except a minimum of 20 SFCs was counted as positive.

[2] = system: human IgG; experiment: 2D gel immunoblot of TG extract with serum pool from 8 TG-allergic donors, IgG reactivity; format: binding; details: for Antibody reactivity IgE/IgG: IgG: reactivity of the parent antigen (TG protein) from which the peptide is predicted, G+/G−; for Antibody reactvity IgE/IgG: IgG: G+ = IgG reactive, G− = not
Description: (§1) 2D DIGE (Difference Gel Electrophoresis) analysis. The complete 2D DIGE analysis was performed by Applied Biomics (Hayward, Calif., US). Briefly, TG extract was run on two 2D gels (3-10 pH range, 12% SDS-acrylamide gel), one was Coomassie blue stained, the other was blotted onto a nitrocellulose membrane. The membrane was then incubated with 5% dried milk in PBS/0.05% Tween to block non-specific binding and subsequently probed with a serum pool from 8 TG-allergic individuals at a dilution of 1:250. IgE and IgG binding was detected using goat anti-human IgE and rabbit anti-human IgG (Sigma-Aldrich, St. Louis, Mo.) and visualized using Cy2-conjugated donkey anti-goat IgG and Cy5-conjugated donkey […] IgG antibodies (Biotium, Hayward, Calif.).
(§2) Mass spectral protein identification was performed by Applied Biomics (Hayward, Calif., US). Briefly, spots of interest were selected from the 2D blot and the corresponding spots were identified on the stained SDS gel and cut out, washed several times to remove staining dye and other inhibitory chemicals. The spots were then dried to absorb maximum digestion buffer. Dried 2D gel spots were rehydrated in digestion buffer containing trypsin. Proteins were digested in-gel at 37° C. and then extracted from the gel with TFA extraction buffer. Subsequently the peptides were desalted using C-18 Zip-tips (Millipore) and mixed with CHCA matrix (alpha-cyano-4-hydroxycinnamic acid) and spotted into wells of a MALDI plate. Mass spectra of the peptides in each sample were obtained using an Applied Biosystems Proteomics Analyzer. The spectra were compared to the amino acid sequences encoded by putative ORFs from the de novo assembled TG pollen transcripts. […] The amino acid sequences encoded by these ORFs were clustered using a custom script at a sequence similarity threshold of 90% to group together highly similar protein sequences. These sequences are encoded by different transcripts from the current assembly, which could arise from splice variants, allelic variation between cells of TG pollen, and from gene families with multiple members. Amino acid sequences that form one cluster are assigned one putative protein ID (Table 1).

[3] = system: human IgE; experiment: 2D gel immunoblot of TG extract with serum pool from 8 TG-allergic donors, IgE reactivity; format: binding; details: for Antibody reactivity IgE/IgG: IgE: reactivity of the parent antigen (TG protein) from which the peptide is predicted, E+/E−; for Antibody reactvity IgE/IgG: IgE: E− = not IgE reactive
Description: as §1, §2

[4] = system: PBMCs from TG allergic donors; experiment: IFNg ELISPOT of TG extract-expanded PBMCs from TG allergic donors (single peptides); format: cell-based, human; details: T cell recognition in TG allergic patients; for Total response IFNg Events: number of positive events
[5] = system: PBMCs from TG allergic donors; experiment: as above; format: cell-based, human; details: for Total response IFNg Events: number of positive response events
[6] = system: PBMCs from TG allergic donors; experiment: as above; format: cell-based, human; details: for Total response IFNg Events: number of positive response events in TG allergic patients; for Total response IFNg SFC: TG allergic patients
[7] = system: PBMCs from TG allergic donors; experiment: IFNg ELISPOT of TG extract-expanded PBMCs (single peptides); format: cell-based, human; details: for Total response IFNg SFC: 15-mer peptide; for Total response IFNg Events: number of positive response events to the 15-mer peptide
[8] = IL-5, number of positive response events
[9] = T cell recognition in TG allergic patients, number of positive events
[10] = G+ / G− part of the cell, reactivity of the parent antigen
[11] = IgG reactivity of the parent TG antigen
[12] = E+ / E− part of the cell, reactivity of the parent antigen
[13] = IgE reactivity of the parent TG antigen
[14] = number of positive response events in TG allergic patients
[15] = number of positive response events to the 15-mer peptide
[16] = reactivity of the parent antigen

| Substance | Total response IL-5 Events [1, 8] | Antibody reactvity IgE/IgG (IgG part) [2, 10] | Antibody reactvity IgE/IgG (IgE part) [3, 12] | Total response IFNg Events [5] | Total response IFNg SFC [5] | Total response IL-5 Events [1, 14] | Antibody reactivity IgE/IgG: IgG [2] | Antibody reactivity IgE/IgG: IgE [3] | Total response IFNg Events [6] | Total response IFNg SFC [6] | further results |
| --- | --- | --- | --- | --- | --- | --- | --- | --- | --- | --- | --- |
| 527 (TVSDEYLAAVAKARR; Phleum pratense) [Peptide 527] | 0 | G+ | E+ | 1 | 73 SFC |  |  |  |  |  | Total response IL-5 Events [1, 9]: 0; Antibody reactvity IgE/IgG (IgG part) [2, 11]: G+; Antibody reactvity IgE/IgG (IgE part) [3, 13]: E+; Total response IFNg SFC [4]: 73 SFC; Total response IFNg Events [4]: 1 |
| 411 (SSTRGWCSRRRAGRG; Phleum pratense) [Peptide 411] | 0 | G+ | E− | 0 |  | 0 | G+ | E− | 0 |  |  |
| 83 (TIVASGIENMKIFTR; Phleum pratense) [Peptide 83] | 0 | G+ | E+ | 1 | 293 SFC |  |  |  |  |  | Total response IL-5 Events [1, 9]: 0; Antibody reactvity IgE/IgG (IgG part) [2, 11]: G+; Antibody reactvity IgE/IgG (IgE part) [3, 13]: E+; Total response IFNg SFC [4]: 293 SFC; Total response IFNg Events [4]: 1 |
| 5621 (KIASFLDPDGWKVVL; Phleum pratense) [Peptide 5621] |  |  |  |  |  | 0 | G− | E− | 1 | 343 SFC | Total response IL-5 Events [1, 15]: 0; Antibody reactvity IgE/IgG: IgG [2, 16]: G−; Antibody reactvity IgE/IgG: IgE [3, 16]: E−; Total response IFNg SFC [7]: 343 SFC; Total response IFNg Events [7]: 1 |
| 4269 (GVIAGLNVLRIINEP; Phleum pratense) [Peptide 4269] | 0 | G+ | E− | 1 | 33 SFC | 0 | G+ | E− | 1 | 33 SFC |  |
| 64111 (KNPLKFDNTYFTELL; Phleum pratense) [Peptide 64111] |  |  |  |  |  | 1 | G− | E− | 1 | 47 SFC | Total response IL-5 SFC ([1]; 15-mer peptide): 100 SFC; Total response IL-5 SFC ([1]; TG allergic patients): 100 SFC; Total response IL-5 Events [1, 15]: 1; Antibody reactvity IgE/IgG: IgG [2, 16]: G−; Antibody reactvity IgE/IgG: IgE [3, 16]: E−; Total response IFNg SFC [7]: 47 SFC; Total response IFNg Events [7]: 1 |
| 455 (KRPPRCCQDLVVLPL; Phleum pratense) [Peptide 455] |  |  |  |  |  | 0 | G+ | E− | 0 |  |  |

From patent US10428124B2, “Timothy grass allergens and methods and uses for immune response modulation” (LA JOLLA INSTITUTE FOR ALLERGY AND IMMUNOLOGY, priority 2012, dated 2019)
